What was measured:
Assay type in all cases: in vivo
[1] = test system: pigweed (Amaranthus retroflexus); assay: Test A preemergence; conditions: Amaranthus retroflexus, pre-emergence, 240 h, preemergence, read-out: Plant response rating, Pigweed; for pest or weed control at 125 g/ha: 125 g ai/ha, visual rating after approx. 10 d, 0 to 100 scale where 0 is no effect and 100 is complete control; for pest or weed control at 500 g/ha: 500 g ai/ha, 0 to 100 scale, 0 = no effect, 100 = complete control
[2] = test system: giant foxtail (Setaria faberii); assay: Test A preemergence; conditions: Setaria faberi, pre-emergence, 240 h, preemergence, read-out: Plant response rating, Foxtail, Giant; for pest or weed control at 125 g/ha: 125 g ai/ha, visual rating after approx. 10 d, 0 to 100 scale where 0 is no effect and 100 is complete control; for pest or weed control at 500 g/ha: 500 g ai/ha, 0 to 100 scale, 0 = no effect, 100 = complete control
In short: (§1)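 Compounds were formulated in a non-phytotoxic solvent mixture with surfactant and applied as a preemergence directed soil spray after seeding, or sprayed postemergence over plants 2 to 10 cm tall at the one- to two-leaf stage. Evaluation after about 10 d compared treated with untreated controls, using a scale from 0 (no effect) to 100 (complete control).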

Kochia (Kochia scoparia) = assay: Test A preemergence; conditions: Bassia scoparia, pre-emergence, 240 h, preemergence, read-out: Plant response rating, Kochia; for pest or weed control at 125 g/ha: 125 g ai/ha, visual rating after approx. 10 d, 0 to 100 scale where 0 is no effect and 100 is complete control; for pest or weed control at 500 g/ha: 500 g ai/ha, 0 to 100 scale, 0 = no effect, 100 = complete control
In short: as §1

[3] = test system: ryegrass, Italian (Italian ryegrass, Lolium multiflorum); assay: Test A preemergence; conditions: Lolium multiflorum, pre-emergence, 240 h, preemergence, read-out: Plant response rating, Ryegrass, Italian; for pest or weed control at 125 g/ha: 125 g ai/ha, visual rating after approx. 10 d, 0 to 100 scale where 0 is no effect and 100 is complete control; for pest or weed control at 500 g/ha: 500 g ai/ha, 0 to 100 scale, 0 = no effect, 100 = complete control
In short: as §1

[4] = test system: ragweed (common ragweed, Ambrosia elatior); assay: Test A preemergence; conditions: Ambrosia artemisiifolia, pre-emergence, 240 h, preemergence, read-out: Plant response rating, Ragweed; for pest or weed control at 125 g/ha: 125 g ai/ha, visual rating after approx. 10 d, 0 to 100 scale where 0 is no effect and 100 is complete control; for pest or weed control at 500 g/ha: 500 g ai/ha, 0 to 100 scale, 0 = no effect, 100 = complete control
In short: as §1

[5] = test system: barnyardgrass (Echinochloa crus-galli); assay: Test A preemergence; conditions: Echinochloa crus-galli, pre-emergence, 240 h, preemergence, read-out: Plant response rating, Barnyardgrass; for pest or weed control at 125 g/ha: 125 g ai/ha, visual rating after approx. 10 d, 0 to 100 scale where 0 is no effect and 100 is complete control; for pest or weed control at 500 g/ha: 500 g ai/ha, 0 to 100 scale, 0 = no effect, 100 = complete control
In short: as §1

[6] = test system: sedge, umbrella (small-flower umbrella sedge, Cyperus difformis); assay: Test B flooded paddy test; conditions: Cyperus difformis, Flood, 250 g ai/ha; scale of 0 to 100 where 0 is no effect and 100 is complete control; read-out: Sedge, Umbrella plant response rating
In short: (§2)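 Evaluation by eye, against controls, occurred 13–15 d post-treatment in a greenhouse, using a 0 (no effect) to 100 (complete control) scale. Application was into the paddy water, 3 cm deep over the soil, on 2-leaf plants.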

[7] = test system: ducksalad (Heteranthera limosa); assay: Test B flooded paddy test; conditions: Heteranthera limosa, Flood, 250 g ai/ha; scale of 0 to 100 where 0 is no effect and 100 is complete control; read-out: Ducksalad plant response rating
In short: as §2

rice (Oryra sativa) = assay: Test B flooded paddy test; conditions: Oryza sativa, Flood, 250 g ai/ha; scale of 0 to 100 where 0 is no effect and 100 is complete control; read-out: Rice plant response rating
In short: as §2

[8] = test system: barnyardgrass (Echinochloa crus-galli); assay: Test B flooded paddy test; conditions: Echinochloa crus-galli, Flood, 250 g ai/ha; scale of 0 to 100 where 0 is no effect and 100 is complete control; read-out: Barnyardgrass plant response rating
In short: as §2

[9] = test system: pigweed (Amaranthus retroflexus); assay: Test A postemergence; conditions: Amaranthus retroflexus, post-emergence, 240 h, 125 g ai/ha, postemergence; visual injury after approximately 10 d; 0 to 100 scale (0 no effect, 100 complete control); read-out: Plant response rating, Pigweed
In short: as §1

[10] = test system: blackgrass (Alopecurus myosuroides); assay: Test A postemergence; conditions: Alopecurus myosuroides, post-emergence, 240 h, 125 g ai/ha, postemergence; visual injury after approximately 10 d; 0 to 100 scale (0 no effect, 100 complete control); read-out: Plant response rating, Blackgrass
In short: as §1

[11] = test system: wheat (Triticum aestivum); assay: Test A postemergence; conditions: Triticum aestivum, post-emergence, 240 h, 125 g ai/ha, postemergence; visual injury after approximately 10 d; 0 to 100 scale (0 no effect, 100 complete control); read-out: Plant response rating, Wheat
In short: as §1

[12] = test system: giant foxtail (Setaria faberii); assay: Test A postemergence; conditions: Setaria faberi, post-emergence, 240 h, 125 g ai/ha, postemergence; visual injury after approximately 10 d; 0 to 100 scale (0 no effect, 100 complete control); read-out: Plant response rating, Foxtail, Giant
In short: as §1

[13] = test system: ryegrass, Italian (Italian ryegrass, Lolium multiflorum); assay: Test A postemergence; conditions: Lolium multiflorum, post-emergence, 240 h, 125 g ai/ha, postemergence; visual injury after approximately 10 d; 0 to 100 scale (0 no effect, 100 complete control); read-out: Plant response rating, Ryegrass, Italian
In short: as §1

SMILES	pest or weed control at 125 g/ha [1] [%]	pest or weed control at 500 g/ha [1] [%]	pest or weed control at 125 g/ha [2] [%]	pest or weed control at 500 g/ha [2] [%]	pest or weed control at 125 g/ha (Kochia (Kochia scoparia)) [%]	pest or weed control at 500 g/ha (Kochia (Kochia scoparia)) [%]	pest or weed control at 125 g/ha [3] [%]	pest or weed control at 500 g/ha [3] [%]	pest or weed control at 125 g/ha [4] [%]	pest or weed control at 500 g/ha [4] [%]	pest or weed control at 125 g/ha [5] [%]	pest or weed control at 500 g/ha [5] [%]	pest or weed control at 250 g/ha [6] [%]	pest or weed control at 250 g/ha [7] [%]	pest or weed control at 250 g/ha (rice (Oryra sativa)) [%]	pest or weed control at 250 g/ha [8] [%]	pest or weed control at 125 g/ha [9] [%]	pest or weed control at 125 g/ha [10] [%]	plant injury at 125 g/ha [11] [%]	pest or weed control at 125 g/ha [12] [%]	also measured
O=C1NC[C@H](c2cccc(C(F)(F)F)c2)[C@H]1C(=O)Nc1ccccc1C1CC1 [Compound 748]	0	0	40	90	0	0	0	0	0	0	0	30	0	75	25	0	0	0	0	0	pest or weed control at 125 g/ha [13]: 0%
O=C1NC[C@H](c2cnc(C(F)(F)F)nc2)[C@H]1C(=O)Nc1ccccc1F [Compound 741]	0	40	0	0	0	30	0	0	0	0	0	0	40	90	0	0	0	0	0	0	pest or weed control at 125 g/ha [13]: 0%
CN1C[C@H](c2cc(F)c(F)c(F)c2)[C@@H](C(=O)Nc2ccc(F)c(F)c2F)C1=O [Compound 757]	30	70	90	90	70	70	30	60	20	90	90	90	0	100	80	75	20	60	60	90	pest or weed control at 125 g/ha [13]: 20%

Reference: patent publication US12077503B2, “Substituted cyclic amides and their use as herbicides” (FMC CORPORATION, priority 2015, dated 2024)
